Measured values reported in ChEMBL document CHEMBL1201862, “PubChem BioAssay data set” (2004).
Active and inactive are the calls of the source. Unless noted, the calls are words filed in the database; no cut-off is given here.

How the values were obtained:
[1] = molecular target: Intestinal-type alkaline phosphatase (Mus musculus, UniProt P24822); assay: PubChem AID 488874; format: functional
[2] = molecular target: T1, Intestinal-type alkaline phosphatase (Homo sapiens, UniProt P09923); assay: human intestinal alkaline phosphatase activators, dose response, biochemical, luminescence, uHTS hits (AID 463120); format: functional
[3] = molecular target: T1, Intestinal-type alkaline phosphatase; assay: human IAP activators, dose response, biochemical, luminescent, uHTS hits, set 2 (AID 488817); format: functional;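 further: potency of activators that raise enzyme activity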
[4] = molecular target: T2, Alkaline phosphatase, tissue-nonspecific isozyme (Homo sapiens, UniProt P05186); assay: TNAP enzyme activators, dose response, selectivity assay for human IAP activator project, biochemical, TNAP isozyme, human IAP uHTS hits (AID 488886); format: functional;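 further: potency of compounds raising TNAP activity as a selectivity check on IAP activators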
T2 sequence (P05186 whole entry): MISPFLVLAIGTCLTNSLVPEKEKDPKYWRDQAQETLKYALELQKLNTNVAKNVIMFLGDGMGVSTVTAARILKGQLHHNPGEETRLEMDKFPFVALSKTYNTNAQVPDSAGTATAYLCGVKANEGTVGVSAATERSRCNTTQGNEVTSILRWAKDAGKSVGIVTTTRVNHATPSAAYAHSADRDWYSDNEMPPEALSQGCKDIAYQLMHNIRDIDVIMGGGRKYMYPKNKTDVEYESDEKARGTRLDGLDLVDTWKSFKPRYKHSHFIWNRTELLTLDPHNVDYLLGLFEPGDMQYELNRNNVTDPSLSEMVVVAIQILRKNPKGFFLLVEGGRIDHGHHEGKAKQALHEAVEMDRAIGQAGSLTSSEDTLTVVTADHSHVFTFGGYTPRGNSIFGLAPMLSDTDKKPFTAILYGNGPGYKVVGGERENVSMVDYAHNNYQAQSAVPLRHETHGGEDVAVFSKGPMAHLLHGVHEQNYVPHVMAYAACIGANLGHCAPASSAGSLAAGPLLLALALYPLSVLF

[5] = M. tuberculosis growth inhibition, HTS (AID 449762); format: functional
[6] = microbe, parasite or virus in culture; format: functional; conditions: Mycobacterium tuberculosis
Cytochrome P450 3A4 = Cytochrome P450 3A4 (Homo sapiens, UniProt P08684);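 further: CYP3A4 tested as one member of a cytochrome P450 panel screen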
[7] = molecular target: T3, RNA-binding protein pos-1 (Caenorhabditis elegans, UniProt G5EF15); assay: inhibitors of POS-1/mex-3 RNA binding, dose response, biochemical, fluorescence polarization (AID 1964);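 further: purified POS-1 fused to maltose binding protein made in E. coli; potency of compounds blocking POS-1 binding to fluorescent RNA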
T3 sequence (G5EF15 whole entry): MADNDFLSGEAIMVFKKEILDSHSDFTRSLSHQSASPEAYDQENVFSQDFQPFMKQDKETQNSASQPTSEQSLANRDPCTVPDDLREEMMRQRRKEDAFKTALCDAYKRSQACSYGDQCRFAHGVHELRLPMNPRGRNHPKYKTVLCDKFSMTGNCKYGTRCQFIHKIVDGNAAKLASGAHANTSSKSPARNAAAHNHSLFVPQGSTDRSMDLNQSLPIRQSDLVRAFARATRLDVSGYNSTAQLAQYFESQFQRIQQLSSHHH

[8] = molecular target: T4, Zinc finger protein mex-5 (Caenorhabditis elegans, UniProt Q9XUB2); assay: MEX-5/TCR-2 RNA interaction inhibitors, dose response, biochemical, C. elegans, fluorescence polarization (AID 1960)
T4 sequence (Q9XUB2 whole entry): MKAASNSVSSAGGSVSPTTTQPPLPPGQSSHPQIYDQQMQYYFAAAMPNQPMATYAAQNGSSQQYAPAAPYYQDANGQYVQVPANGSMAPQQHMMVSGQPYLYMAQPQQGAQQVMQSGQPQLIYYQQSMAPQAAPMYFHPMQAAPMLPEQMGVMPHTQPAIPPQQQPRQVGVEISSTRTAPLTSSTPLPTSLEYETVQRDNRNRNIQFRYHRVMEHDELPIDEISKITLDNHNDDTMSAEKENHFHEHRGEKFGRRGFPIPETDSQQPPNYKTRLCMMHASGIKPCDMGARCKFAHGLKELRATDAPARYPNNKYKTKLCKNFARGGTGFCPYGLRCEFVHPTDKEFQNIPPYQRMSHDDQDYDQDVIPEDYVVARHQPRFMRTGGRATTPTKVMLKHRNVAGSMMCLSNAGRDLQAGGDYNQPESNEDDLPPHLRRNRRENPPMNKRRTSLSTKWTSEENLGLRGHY

Beta-galactosidase = Beta-galactosidase (Escherichia coli, UniProt Q8VNN2); assay: PubChem AID 485352; format: functional
[9] = molecular target: T5, Type-1 angiotensin II receptor (Homo sapiens, UniProt P30556); assay: AT1 receptor antagonists, dose response, selectivity assay for APJ receptor antagonist project, cell-based, uHTS hits (AID 463214); format: functional;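 further: antagonist potency against angiotensin II stimulated AT1 response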
T5 sequence (P30556 whole entry): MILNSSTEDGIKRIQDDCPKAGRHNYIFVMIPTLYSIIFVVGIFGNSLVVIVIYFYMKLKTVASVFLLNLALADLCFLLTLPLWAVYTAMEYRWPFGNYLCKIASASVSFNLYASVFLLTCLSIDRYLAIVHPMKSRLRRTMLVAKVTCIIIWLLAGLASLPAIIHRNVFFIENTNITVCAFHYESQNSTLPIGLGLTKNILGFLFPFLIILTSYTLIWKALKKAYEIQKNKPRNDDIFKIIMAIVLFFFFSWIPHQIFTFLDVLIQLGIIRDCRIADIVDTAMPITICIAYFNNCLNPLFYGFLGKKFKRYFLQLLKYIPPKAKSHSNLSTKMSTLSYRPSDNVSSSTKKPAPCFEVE

Hexokinase HKDC1 = molecular target: T6, Hexokinase HKDC1 (Homo sapiens, UniProt Q2TB90); assay: HKDC1 hexokinase activators, dose response, biochemical, W721R variant (AID 504730); format: functional
T6 sequence (Q2TB90 whole entry): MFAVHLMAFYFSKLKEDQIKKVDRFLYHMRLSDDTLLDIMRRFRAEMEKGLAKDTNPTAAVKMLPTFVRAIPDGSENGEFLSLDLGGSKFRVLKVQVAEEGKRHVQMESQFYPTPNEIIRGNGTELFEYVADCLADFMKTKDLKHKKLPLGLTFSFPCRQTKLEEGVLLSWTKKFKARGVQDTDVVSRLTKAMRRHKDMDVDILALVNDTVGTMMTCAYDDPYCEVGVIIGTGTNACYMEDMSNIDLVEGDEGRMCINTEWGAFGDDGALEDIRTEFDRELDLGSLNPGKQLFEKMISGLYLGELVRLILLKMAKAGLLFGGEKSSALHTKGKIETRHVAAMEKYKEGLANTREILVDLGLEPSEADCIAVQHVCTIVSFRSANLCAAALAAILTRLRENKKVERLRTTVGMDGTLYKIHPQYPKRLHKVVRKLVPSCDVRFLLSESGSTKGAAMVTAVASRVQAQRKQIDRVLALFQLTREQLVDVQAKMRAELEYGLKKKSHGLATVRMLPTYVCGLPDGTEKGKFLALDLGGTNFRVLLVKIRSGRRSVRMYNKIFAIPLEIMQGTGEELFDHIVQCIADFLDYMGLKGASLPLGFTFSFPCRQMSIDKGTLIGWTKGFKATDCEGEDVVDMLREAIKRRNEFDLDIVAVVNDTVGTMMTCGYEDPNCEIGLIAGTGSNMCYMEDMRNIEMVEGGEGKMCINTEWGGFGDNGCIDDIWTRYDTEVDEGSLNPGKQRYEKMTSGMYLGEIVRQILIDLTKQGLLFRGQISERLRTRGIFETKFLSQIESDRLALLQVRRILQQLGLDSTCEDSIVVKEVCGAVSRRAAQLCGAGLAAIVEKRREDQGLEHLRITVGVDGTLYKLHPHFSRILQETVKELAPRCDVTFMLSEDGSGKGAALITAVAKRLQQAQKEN

Hexokinase-1 = molecular target: T7, Hexokinase-1 (Homo sapiens, UniProt P19367); assay: hexokinase 1 activators, dose response, selectivity assay for HKDC1 activator project, biochemical (AID 504762); format: functional
T7 sequence (P19367 whole entry): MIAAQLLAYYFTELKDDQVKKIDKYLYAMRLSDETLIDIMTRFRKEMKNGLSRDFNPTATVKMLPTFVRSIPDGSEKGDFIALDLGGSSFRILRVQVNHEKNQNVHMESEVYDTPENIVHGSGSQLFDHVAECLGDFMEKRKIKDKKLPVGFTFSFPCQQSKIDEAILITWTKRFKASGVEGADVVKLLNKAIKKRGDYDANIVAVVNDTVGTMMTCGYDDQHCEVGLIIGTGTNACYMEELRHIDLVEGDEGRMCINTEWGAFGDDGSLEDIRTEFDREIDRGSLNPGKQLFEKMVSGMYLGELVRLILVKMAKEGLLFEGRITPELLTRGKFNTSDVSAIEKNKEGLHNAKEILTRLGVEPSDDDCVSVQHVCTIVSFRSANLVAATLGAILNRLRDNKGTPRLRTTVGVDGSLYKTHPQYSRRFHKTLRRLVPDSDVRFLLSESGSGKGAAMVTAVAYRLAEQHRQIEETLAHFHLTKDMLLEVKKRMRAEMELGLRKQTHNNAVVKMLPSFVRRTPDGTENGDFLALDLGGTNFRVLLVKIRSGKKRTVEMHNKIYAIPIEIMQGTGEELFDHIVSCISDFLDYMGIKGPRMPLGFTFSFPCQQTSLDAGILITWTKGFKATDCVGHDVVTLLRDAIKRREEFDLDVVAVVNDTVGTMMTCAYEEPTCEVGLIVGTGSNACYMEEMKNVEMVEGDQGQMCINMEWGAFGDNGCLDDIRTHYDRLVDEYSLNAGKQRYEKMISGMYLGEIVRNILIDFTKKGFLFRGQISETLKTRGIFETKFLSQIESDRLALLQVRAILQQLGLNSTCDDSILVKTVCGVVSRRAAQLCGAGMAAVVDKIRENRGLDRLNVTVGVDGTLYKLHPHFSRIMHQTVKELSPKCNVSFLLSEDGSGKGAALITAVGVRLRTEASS

[10] = molecular target: Lysine-specific demethylase 4A (Homo sapiens, UniProt O75164); assay: JMJD2A histone demethylase inhibitors, dose response, selectivity assay for GASC-1 inhibitor project, biochemical, DELFIA europium, cherry-picked samples (AID 488840)
[11] = molecular target: Lysine-specific demethylase 4C (Homo sapiens, UniProt Q9H3R0); assay: GASC-1 (JMJD2C) histone demethylase inhibitors, dose response, biochemical, DELFIA europium, cherry-picked samples (AID 488835); format: functional
SUMO E1/E2 = SUMO E1/E2 (Homo sapiens, UniProt P63279+Q9UBE0+Q9UBT2); assay: SAR analysis of SUMOylation using HTRF in an in-Vitro dose response assay. [Related pubchem assays (depositor defined):AID2006, AID2011, AID2018, AID2069, AID2658]; format: functional
Mu-type opioid receptor [12] = molecular target: T8, Mu-type opioid receptor (Homo sapiens, UniProt P35372); assay: SAR Analysis of Antagonists of the MOR Receptor using an Image-Based Assay - Set 2. [Related pubchem assays (depositor defined):AID1777, AID1785, AID1786, AID1966, AID2133, AID2136, AID2284, AID2285, AID2420]; format: functional
[13] = molecular target: T9, Kappa-type opioid receptor (Homo sapiens, UniProt P41145); assay: SAR analysis of Antagonists of the Kappa Opioid Receptor (KOR) using an Image-Based Assay - Set 2. [Related pubchem assays (depositor defined):AID1777, AID1785, AID1786, AID1966, AID2133, AID2136, AID2284, AID2285, AID2348]; format: functional
Mu-type opioid receptor [14] = molecular target: T8, Mu-type opioid receptor; assay: SAR Analysis of Agonists of the MOR Receptor using an Image-Based Assay - Set 2. [Related pubchem assays (depositor defined):AID1777, AID1785, AID1786, AID1966, AID2133, AID2136, AID2284, AID2285, AID2352]; format: functional
[15] = molecular target: T9, Kappa-type opioid receptor; assay: SAR analysis of small molecule agonists of the kappa opioid receptor via a luminescent beta-arrestin assay - Set 2. [Related pubchem assays (depositor defined):AID1777, AID1785, AID1786, AID1966, AID2133, AID2136, AID2284, AID449737]; format: functional
[16] = molecular target: T10, Delta-type opioid receptor (Homo sapiens, UniProt P41143); assay: SAR Analysis of Agonists of the DOR Receptor using an Image-Based Assay - Set 2. [Related pubchem assays (depositor defined):AID1777, AID1785, AID1786, AID1966, AID2133, AID2136, AID2284, AID2285, AID2370]; format: functional
[17] = molecular target: T10, Delta-type opioid receptor; assay: SAR Analysis of Antagonists of the DOR Receptor using an Image-Based Assay - Set 2. [Related pubchem assays (depositor defined):AID1777, AID1785, AID1786, AID1966, AID2133, AID2136, AID2284, AID2285, AID2357]; format: functional
[18] = molecular target: T9, Kappa-type opioid receptor; assay: SAR analysis of Agonists of the Kappa Opioid Receptor (KOR) using an Image-Based Assay - Set 2. [Related pubchem assays (depositor defined):AID1777, AID1786, AID1966, AID2133, AID2136, AID2284, AID2285, AID2359]; format: functional
Candida albicans = assay: fluconazole resistance reversal in C. albicans, dose response, CaCi-2 strain, Alamar Blue, dry powder, set 4 (AID 488943); format: functional, organism-based

T9 sequence (P41145 whole entry): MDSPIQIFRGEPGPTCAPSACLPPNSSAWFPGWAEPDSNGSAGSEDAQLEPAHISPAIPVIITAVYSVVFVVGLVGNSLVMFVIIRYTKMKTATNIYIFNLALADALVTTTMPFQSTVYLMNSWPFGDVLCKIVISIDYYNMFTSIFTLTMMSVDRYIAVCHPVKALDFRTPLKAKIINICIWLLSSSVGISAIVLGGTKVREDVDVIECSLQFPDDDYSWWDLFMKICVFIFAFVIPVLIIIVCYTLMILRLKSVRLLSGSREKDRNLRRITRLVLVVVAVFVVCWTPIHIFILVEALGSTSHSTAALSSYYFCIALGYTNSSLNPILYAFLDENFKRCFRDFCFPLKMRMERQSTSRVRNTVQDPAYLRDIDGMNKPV
T1 sequence (P09923 whole entry): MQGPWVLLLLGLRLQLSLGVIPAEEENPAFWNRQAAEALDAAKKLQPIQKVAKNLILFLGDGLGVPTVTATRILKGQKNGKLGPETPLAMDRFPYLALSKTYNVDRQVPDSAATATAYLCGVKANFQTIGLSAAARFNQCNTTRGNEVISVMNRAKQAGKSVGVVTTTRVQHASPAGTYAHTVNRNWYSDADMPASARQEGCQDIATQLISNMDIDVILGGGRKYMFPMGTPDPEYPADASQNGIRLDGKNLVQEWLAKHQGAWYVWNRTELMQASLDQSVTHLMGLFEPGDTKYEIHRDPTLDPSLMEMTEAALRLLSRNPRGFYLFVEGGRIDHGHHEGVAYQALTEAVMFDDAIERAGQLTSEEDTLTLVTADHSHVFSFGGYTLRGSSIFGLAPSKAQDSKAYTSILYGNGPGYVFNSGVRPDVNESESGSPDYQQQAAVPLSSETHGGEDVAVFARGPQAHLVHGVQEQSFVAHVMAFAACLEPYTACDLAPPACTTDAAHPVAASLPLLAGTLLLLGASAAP
T10 sequence (P41143 whole entry): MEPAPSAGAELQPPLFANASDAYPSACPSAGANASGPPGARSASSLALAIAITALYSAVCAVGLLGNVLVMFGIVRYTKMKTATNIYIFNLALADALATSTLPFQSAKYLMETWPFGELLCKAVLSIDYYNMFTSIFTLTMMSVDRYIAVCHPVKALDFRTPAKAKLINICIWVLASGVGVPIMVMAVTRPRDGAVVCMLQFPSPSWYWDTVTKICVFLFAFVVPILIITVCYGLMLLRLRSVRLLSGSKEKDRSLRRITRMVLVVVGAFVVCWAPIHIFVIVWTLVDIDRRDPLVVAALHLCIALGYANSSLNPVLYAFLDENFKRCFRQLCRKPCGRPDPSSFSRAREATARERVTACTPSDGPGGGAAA
T8 sequence (P35372 whole entry): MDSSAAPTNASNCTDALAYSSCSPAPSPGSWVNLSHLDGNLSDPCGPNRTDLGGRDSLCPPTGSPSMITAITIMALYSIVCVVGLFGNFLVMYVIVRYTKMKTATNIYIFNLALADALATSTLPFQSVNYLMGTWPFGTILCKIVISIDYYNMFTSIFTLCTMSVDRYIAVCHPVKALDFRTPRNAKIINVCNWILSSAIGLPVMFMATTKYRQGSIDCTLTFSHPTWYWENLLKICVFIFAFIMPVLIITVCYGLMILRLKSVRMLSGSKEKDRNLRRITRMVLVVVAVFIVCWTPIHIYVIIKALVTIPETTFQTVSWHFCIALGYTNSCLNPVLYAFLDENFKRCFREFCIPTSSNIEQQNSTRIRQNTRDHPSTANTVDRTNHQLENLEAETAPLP
Cytochrome P450 3A4, sequence (P08684 whole entry, the tested form may be a part): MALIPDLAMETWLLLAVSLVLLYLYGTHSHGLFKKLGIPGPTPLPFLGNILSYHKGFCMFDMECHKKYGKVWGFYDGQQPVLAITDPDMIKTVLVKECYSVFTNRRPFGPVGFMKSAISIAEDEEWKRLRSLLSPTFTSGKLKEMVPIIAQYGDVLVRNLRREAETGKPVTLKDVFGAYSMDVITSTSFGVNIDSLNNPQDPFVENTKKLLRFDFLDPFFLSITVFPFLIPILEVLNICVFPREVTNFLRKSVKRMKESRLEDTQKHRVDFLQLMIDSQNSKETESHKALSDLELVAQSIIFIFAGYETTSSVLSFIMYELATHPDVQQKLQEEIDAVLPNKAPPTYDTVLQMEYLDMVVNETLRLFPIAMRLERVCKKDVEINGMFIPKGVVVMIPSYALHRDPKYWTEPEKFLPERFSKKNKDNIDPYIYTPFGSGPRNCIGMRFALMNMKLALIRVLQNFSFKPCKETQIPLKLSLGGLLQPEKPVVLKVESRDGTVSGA
Intestinal-type alkaline phosphatase (Mus musculus, UniProt P24822), sequence (P24822 whole entry): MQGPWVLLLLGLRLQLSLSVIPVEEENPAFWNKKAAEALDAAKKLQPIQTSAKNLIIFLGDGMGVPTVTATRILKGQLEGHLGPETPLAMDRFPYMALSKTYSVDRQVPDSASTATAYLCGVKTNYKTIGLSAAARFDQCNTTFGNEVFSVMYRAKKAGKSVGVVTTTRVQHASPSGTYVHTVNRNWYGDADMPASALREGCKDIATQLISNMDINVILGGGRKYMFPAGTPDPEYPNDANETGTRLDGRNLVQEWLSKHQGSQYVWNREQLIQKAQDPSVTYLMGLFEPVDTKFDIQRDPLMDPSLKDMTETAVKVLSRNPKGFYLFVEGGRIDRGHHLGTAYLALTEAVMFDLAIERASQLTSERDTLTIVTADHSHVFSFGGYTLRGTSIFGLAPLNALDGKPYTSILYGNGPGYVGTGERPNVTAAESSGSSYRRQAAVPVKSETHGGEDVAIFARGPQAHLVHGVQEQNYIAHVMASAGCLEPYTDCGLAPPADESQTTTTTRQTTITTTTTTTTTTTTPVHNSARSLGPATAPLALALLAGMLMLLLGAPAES
Lysine-specific demethylase 4A, sequence (O75164 whole entry): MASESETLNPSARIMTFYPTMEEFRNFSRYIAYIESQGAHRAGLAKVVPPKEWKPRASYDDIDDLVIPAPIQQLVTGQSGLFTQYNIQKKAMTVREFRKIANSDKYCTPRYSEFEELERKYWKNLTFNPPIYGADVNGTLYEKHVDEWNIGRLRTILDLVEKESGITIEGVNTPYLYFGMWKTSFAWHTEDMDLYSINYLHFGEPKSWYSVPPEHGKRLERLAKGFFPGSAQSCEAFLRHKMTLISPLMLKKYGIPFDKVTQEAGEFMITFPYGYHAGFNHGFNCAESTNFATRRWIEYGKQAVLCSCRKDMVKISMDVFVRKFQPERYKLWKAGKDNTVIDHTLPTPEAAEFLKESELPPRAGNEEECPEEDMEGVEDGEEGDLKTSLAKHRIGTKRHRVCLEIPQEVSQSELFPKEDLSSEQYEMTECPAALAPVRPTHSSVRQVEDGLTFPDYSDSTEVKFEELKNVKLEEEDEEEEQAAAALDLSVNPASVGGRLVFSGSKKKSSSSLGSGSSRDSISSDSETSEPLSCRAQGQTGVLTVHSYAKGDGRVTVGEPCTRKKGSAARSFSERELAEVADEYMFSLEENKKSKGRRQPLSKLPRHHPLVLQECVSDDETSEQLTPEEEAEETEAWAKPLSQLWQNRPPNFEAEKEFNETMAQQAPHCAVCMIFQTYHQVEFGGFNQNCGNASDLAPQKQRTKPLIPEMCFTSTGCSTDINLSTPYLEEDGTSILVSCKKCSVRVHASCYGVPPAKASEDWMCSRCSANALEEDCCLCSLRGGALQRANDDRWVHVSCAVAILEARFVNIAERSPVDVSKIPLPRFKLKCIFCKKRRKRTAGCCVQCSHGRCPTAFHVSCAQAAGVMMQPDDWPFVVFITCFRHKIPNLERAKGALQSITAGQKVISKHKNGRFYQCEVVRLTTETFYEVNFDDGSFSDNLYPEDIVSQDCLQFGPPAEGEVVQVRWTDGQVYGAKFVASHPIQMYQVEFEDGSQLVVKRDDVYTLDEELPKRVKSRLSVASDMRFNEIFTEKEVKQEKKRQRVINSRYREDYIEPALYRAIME
SUMO E1/E2, sequence (Q9UBE0 whole entry): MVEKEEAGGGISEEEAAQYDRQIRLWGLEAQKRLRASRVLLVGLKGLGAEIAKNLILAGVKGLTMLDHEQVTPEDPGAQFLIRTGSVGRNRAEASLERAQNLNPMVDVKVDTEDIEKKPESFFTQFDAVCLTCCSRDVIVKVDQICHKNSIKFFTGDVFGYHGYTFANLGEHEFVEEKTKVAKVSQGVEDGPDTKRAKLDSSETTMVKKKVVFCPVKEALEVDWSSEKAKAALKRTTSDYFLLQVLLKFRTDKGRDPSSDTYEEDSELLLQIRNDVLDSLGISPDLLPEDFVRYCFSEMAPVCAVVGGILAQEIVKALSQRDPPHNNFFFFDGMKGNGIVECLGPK
SUMO E1/E2, sequence (Q9UBT2 whole entry): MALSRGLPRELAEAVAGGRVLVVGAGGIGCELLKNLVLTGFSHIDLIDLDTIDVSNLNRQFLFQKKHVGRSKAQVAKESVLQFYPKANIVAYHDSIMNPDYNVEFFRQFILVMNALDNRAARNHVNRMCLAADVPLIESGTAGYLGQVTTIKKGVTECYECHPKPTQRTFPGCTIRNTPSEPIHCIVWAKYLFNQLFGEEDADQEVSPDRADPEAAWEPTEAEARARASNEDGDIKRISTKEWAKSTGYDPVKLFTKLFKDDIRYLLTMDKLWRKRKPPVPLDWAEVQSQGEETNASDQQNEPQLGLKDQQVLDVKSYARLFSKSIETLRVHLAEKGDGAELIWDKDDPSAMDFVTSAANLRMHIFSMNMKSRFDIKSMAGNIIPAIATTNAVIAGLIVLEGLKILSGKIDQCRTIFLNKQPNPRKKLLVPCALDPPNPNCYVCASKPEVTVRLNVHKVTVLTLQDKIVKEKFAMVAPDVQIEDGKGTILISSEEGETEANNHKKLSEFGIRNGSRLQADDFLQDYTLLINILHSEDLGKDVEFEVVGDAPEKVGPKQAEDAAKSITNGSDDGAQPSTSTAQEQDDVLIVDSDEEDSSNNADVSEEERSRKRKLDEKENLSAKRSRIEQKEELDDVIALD
SUMO E1/E2, sequence (P63279 whole entry): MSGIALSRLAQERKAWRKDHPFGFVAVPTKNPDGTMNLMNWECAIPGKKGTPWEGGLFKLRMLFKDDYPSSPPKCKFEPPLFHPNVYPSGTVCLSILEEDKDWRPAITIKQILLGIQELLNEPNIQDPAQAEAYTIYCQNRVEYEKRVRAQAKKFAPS

## O=C(Cc1ccc(Cl)c(Cl)c1)NNC(=S)NCC1CCCO1 (centres undefined)
[1]
  IC50: 49.6 µM (active)
[2]
  EC50: 14.3 µM (active)
[3]
  EC50: 17.5 µM (active)
[4]
  EC50: 20.2 µM (active)

## COC(=O)C(Cc1ccc(OC(=O)c2ccc(C(F)(F)F)cc2)cc1)N1Cc2ccccc2C1=O (centres undefined)
[5]
  IC50: > 100 µM (active)
[6]
  CC50: 37.4 µM (active)
Cytochrome P450 3A4
  AC50: inconclusive

## CC(=O)C1=C(c2ccccc2)N(C(C)=O)n2c(C)nnc2S1
[7]
  EC50: 191 µM (active)
[8]
  EC50: 10.7 µM (active)
Beta-galactosidase
  EC50: 16.8 µM (active)
[9]
  IC50: 11.3 µM (active)
Hexokinase HKDC1
  EC50: 26 µM (inactive)
Hexokinase-1
  EC50: 20.8 µM (inactive)
[10]
  AC50: 56.3 µM (active)
[11]
  AC50: 0.8 µM (active)

## S=c1[nH]nc(-c2cc(-c3ccccc3)[nH]n2)n1N=Cc1ccc(Br)s1
SUMO E1/E2
  IC50: 11.3 µM (active)

## COc1ccc(CSc2nnc(-c3ccccn3)n2Cc2cccs2)cc1
Mu-type opioid receptor [12]
  IC50: > 32 µM (inactive)
[13]
  IC50: > 32 µM (inactive)
Mu-type opioid receptor [14]
  EC50: > 32 µM (inactive)
[15]
  EC50: 9.61 µM (active)
[16]
  EC50: > 32 µM (inactive)
[17]
  IC50: > 32 µM (inactive)
[18]
  EC50: 5.98 µM (active)

## Clc1ccc2c(N3CCNCC3)ccnc2c1
Candida albicans
  AC50: 21.7 µM (active)
